Laboratory results: patent publication US20170211048A1, “ENHANCED REPROGRAMMING TO IPS CELLS” (Boehringer Ingelheim International GmbH, priority 2014, published 2017)

Key:
Assay type in all cases: cell-based, mouse
[1] = tested on: Reprogrammable transgenic MEFs (Tet-OKSM, Rosa26-rtTAM2, Oct4-GFP); experiment: transient siRNA transfection during iPSC reprogramming; conditions: siRNA transfected 1 to 3 times during doxycycline treatment
Source text: FIG. 26: Transient suppression of Chaf1a, Chaf1b or Ube2i using siRNA transfection enhances iPSC reprogramming. Reprogrammable transgenic MEFs (Tet-OKSM, Rosa26-rtTAM2, Oct4-GFP) where transfected 1 to 3 times at the indicated days of doxycyline treatment with siRNAs targeting Renilla, Chaf1a, Chaf1b, Ube2i. Shown is the fraction of Oct4-GFP positive cells after 11 days. […] Suppression of these targets at early time points of reprogramming (day 1-3 following OKSM expression) seems critical and sequential transfections at different days can enhance this effect. […] The siRNA molecules used in the study have the following sequence: Ube2i.414—2: […] (SEQ ID NO:103), Chaf1a.3120 […] (SEQ ID NO:104), Chaf1b.271 […] (SEQ ID NO:105) and Ren.713 […] (SEQ ID NO:106).

[2] = tested on: MEFs with doxycycline inducible reprogramming factors; experiment: iPS colony formation assay in serum replacement, LIF and 2i; conditions: 2i plus LIF at single cell density, 10000 cells/10 cm dish, doxycycline 7 days
Source text: In order to test the achieved factor of iPS formation enhancement in a colony formation assay, we chose optimal conditions described for iPS formation, i.e. serum replacement, LIF and 2i. The two inhibitors (2i) are shown to support the ground state of pluripotency and enhance iPS formation. More specifically, 2i supports the transition of pre-iPS cells to iPS cells.
In doing so, we intended to measure the factor of improvement in optimal, potentially saturated conditions. 10000 cells were plated/10 cm dish and reprogramming was induced by addition of doxycycline for 7 days. Reprogramming in presence of 2i furthermore represents an additional condition to test versatility of herein described enhanced reprogramming regimen. […]

[3] = tested on: OSKM/RR/OG-MEFs; experiment: single-shRNA validation, flow cytometry of the Oct4-GFP reporter; conditions: FIG. 1, day 11 after doxycycline induction; DMEM with FCS and ascorbate
Protocol: To validate hits identified in the primary multiplexed screen, a set of 32 independent shRNAs including several of the top hits as well as a panel of intermediately scoring shRNAs were tested in single assays. To this end, OSKM/RR/OG-MEFs were transduced with individual pLENC shRNAs in biological triplicates, selected, and treated with Dox for OSKM induction. The iPS reprogramming efficacy was quantified using flow cytometry analysis of the Oct-4-GFP reporter (FIG. 1) and microscopy (FIG. 2a).
To this end, described MEFs with doxycycline inducible reprogramming factors (OSKM, 4F, Yamanaka factors) were transduced with pLENC-shRNA vectors (co-expressing miRE-based shRNAs, mCherry and a Neo resistance gene) in biological triplicate as described previously. Selection for infected cells was based on G418 resistance. 3 days after infection, cells were trypsinized and each replicate was plated in multiple wells in presence of FCS and ascorbate containing medium as well as doxycycline. Cells were subjected to various conditions for iPS formation starting 24 h after Doxycycline addition, i.e. prior to expected full expression of OSKM factors. Doxycycline was added to media for 7 days. […]
shRNAs were transduced into OSKM MEFs. […] Cells were analyzed using a FACS BD LSRFortessa.

[4] = tested on: reprogrammable MEFs; experiment: FACS based timeline of Oct4-GFP expression during reprogramming; conditions: days of OKSM expression, FIG. 3
Source text: In order to observe the kinetics of reprogramming in the enhanced reprogramming regimen, we quantified GFP positive cells using FACS analysis. GFP driven from the endogenous Oct4 locus serves as a marker for Oct4 expression and thus iPS and possibly pre-iPS state. […] In contrast, Ube2i suppression only slightly accelerated the reprogramming timeline, but made the process much more efficient, and ultimately exceeds the effects of observed for Caf-1 suppression (i.e. the percentage of GFP+ cells actually overtakes the enhancement achieve through Caf-1 suppression at day 10).
The inventors further decided to examine the effects of the gene expression reduction in the absence of the identified chromatin barriers, by following the emergence of Oct4-GFP^+ cells over time. While suppression of Ube2i promoted Oct4-GFP activation slightly earlier than controls (day six with Ube2i shRNA vs. day nine with Renilla shRNA), the suppression of either CAF-1 subunit triggered a dramatic acceleration of this process and consistently generated Oct4-GFP+ cells as early as four days of OKSM expression (FIG. 3). Similar effects were observed by flow cytometry-based analysis of Nanog expression (FIG. 15).

[5] = tested on: Oct4-GFP;CAGGS-rtTA3 double-transgenic MEFs; experiment: short-term transient OKSM expression and Tet-regulated shRNA; conditions: doxycycline for 2 or 4 days
Protocol: FIG. 22: Short-term transient expression of OKSM and suppression of Chaf1a for only 2-4 days enable robust iPSC reprogramming. Oct4-GFP;CAGGS-rtTA3 double-transgenic MEFs were first transduced with a Tet-regulatable shRNA expression vector encoding a potent Chaf1a shRNA (T3G-mCherry-miRE.Chaf1a.3118), and 3 days later transduced with lentiviral vectors inducibly expressing OKSM from the Tet-responsive promoters TRE (TetO-STEMCCA) or TRE3G (T3G-4Fpuro). Cell were treated with doxycyline for 2 or 4 days starting at day in OKSM infection, triggering a transient and reversible OKSM expression and Chaf1a suppression. Shown is the percentage of Oct4-GFP positive cells at day 11 after lentiviral infection. Error bars indicate standard deviation (SD) of 3 biological replicates. Suppression of Chaf1a, Chaf1b and Ube2i enhance iPSC reprogramming in the use of both Tet-inducible OKSM expression vectors.

CAGCTACTTCCAAATTGTAAA (listed as DNA, chemistry not fully specified) [Chaf1a.3120]
effect on fraction of Oct4-GFP positive cells after 11 days [1]: enhances reprogramming

shRNA.Ren.713: neutral control shRNA (Ren.713) targeting Renilla (guide AGGAATTATAATGCTTATCTA)
Colony number [2]: 0 | Oct4-GFP+ cells [3]: < 1% | time of Oct4-GFP activation [4]: day nine

UUUACAAUUUGGAAGUAGCUG (expressed or natural sequence) [Chaf1a.3118]
iPS cell formation (Oct4-GFP positive cells at day 11) [5]: robust formation of iPS cells

CACAATTTACTGCCAAAACAA (listed as DNA, chemistry not fully specified) [Ube2i.414—2]
effect on fraction of Oct4-GFP positive cells after 11 days [1]: enhances reprogramming
